Experimental findings from the supplement of paper PMC10307832 are described below.

Common to all, as to assay: relative viability (nuclei count vs DMSO), 5 days (fraction); higher = more cells survive
Compound in the experiment “ALW-II-49-7 + Dasatinib”: Cc1ccc(C(=O)Nc2cccc(C(F)(F)F)c2)cc1Nc1cncc(C(N)=O)c1 [ALW-II-49-7] + Cc1nc(Nc2ncc(C(=O)Nc3c(C)cccc3Cl)s2)cc(N2CCN(CCO)CC2)n1 [Dasatinib] (partner 0.075 µM)
The gist of the method: (§1)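 Dosing by pin tool came one day after lung cancer cell lines were seeded in 1536-well plates, using either one drug or a fixed anchor-drug dose plus five library-drug doses (not always all listed) in √10 steps. After 5 days, nuclei were counted on 4× images. Relative viability is treated-well nuclei count divided by vehicle-well nuclei count, and values are medians of duplicate plates.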

Compound in the experiment “XMD13-2 + Palbociclib”: C1CC1C(=O)NC2=NNC3=C2C=CC(=C3)C4=CC(=CC=C4)C(=O)NC5CC5 [XMD13-2] + CC(=O)c1c(C)c2cnc(Nc3ccc(N4CCNCC4)cn3)nc2n(C2CCCC2)c1=O [Palbociclib] (partner 0.5 µM)
The gist of the method:
as §1

Compound in the experiment “XMD13-2 + Luminespib”: C1CC1C(=O)NC2=NNC3=C2C=CC(=C3)C4=CC(=CC=C4)C(=O)NC5CC5 [XMD13-2] + CCNC(=O)c1noc(-c2cc(C(C)C)c(O)cc2O)c1-c1ccc(CN2CCOCC2)cc1 [Luminespib] (partner 0.01 µM)
The gist of the method:
as §1

Compound in the experiment “Dasatinib + Pemetrexed”: Cc1nc(Nc2ncc(C(=O)Nc3c(C)cccc3Cl)s2)cc(N2CCN(CCO)CC2)n1 [Dasatinib] + Nc1nc2[nH]cc(CCc3ccc(C(=O)N[C@@H](CCC(=O)O)C(=O)O)cc3)c2c(=O)[nH]1 [Pemetrexed] (partner 0.2 µM)
The gist of the method:
as §1

For NCI-H460, the relative viability was 0.492 with ALW-II-49-7 + Dasatinib (first compound 0.08 µM); 0.583 in the experiment with ALW-II-49-7 + Dasatinib (first compound 0.253 µM); 0.563 with ALW-II-49-7 + Dasatinib (first compound 0.8 µM); 0.423 with ALW-II-49-7 + Dasatinib (first compound 2.53 µM); 0.507 with ALW-II-49-7 + Dasatinib (first compound 8 µM); 0.183 with XMD13-2 + Palbociclib (first compound 0.05 µM). Also, the relative viability stood at 0.167 with XMD13-2 + Palbociclib (first compound 0.1581 µM); 0.21 with XMD13-2 + Palbociclib (first compound 0.5 µM); 0.233 in the experiment with XMD13-2 + Palbociclib (first compound 1.581 µM); 0.286 with XMD13-2 + Palbociclib (first compound 5 µM); 0.0335 in the experiment with XMD13-2 + Luminespib (first compound 0.05 µM); 0.0365 in the experiment with XMD13-2 + Luminespib (first compound 0.1581 µM). In addition, the relative viability in the experiment with XMD13-2 + Luminespib (first compound 0.5 µM) was found to be 0.0372; with XMD13-2 + Luminespib (first compound 1.581 µM) it was 0.0316; with XMD13-2 + Luminespib (first compound 5 µM) it was 0.0324; with Dasatinib + Pemetrexed (first compound 0.005 µM), 0.0609; with Dasatinib + Pemetrexed (first compound 0.01581 µM), 0.062; with Dasatinib + Pemetrexed (first compound 0.05 µM), 0.0522. Besides, the relative viability with Dasatinib + Pemetrexed (first compound 0.1581 µM) is 0.0587; in the experiment with Dasatinib + Pemetrexed (first compound 0.5 µM), 0.0433.
Consider NCI-H520, for which the relative viability was 0.218 with ALW-II-49-7 + Dasatinib (first compound 0.08 µM); 0.192 in the experiment with ALW-II-49-7 + Dasatinib (first compound 0.253 µM); 0.202 with ALW-II-49-7 + Dasatinib (first compound 0.8 µM); 0.172 with ALW-II-49-7 + Dasatinib (first compound 2.53 µM); 0.177 with ALW-II-49-7 + Dasatinib (first compound 8 µM); 0.256 with XMD13-2 + Palbociclib (first compound 0.05 µM). The relative viability in the experiment with XMD13-2 + Palbociclib (first compound 0.1581 µM) is 0.239; in the experiment with XMD13-2 + Palbociclib (first compound 0.5 µM) it was 0.213; in the experiment with XMD13-2 + Palbociclib (first compound 1.581 µM), 0.203; in the experiment with XMD13-2 + Palbociclib (first compound 5 µM), 0.188; with XMD13-2 + Luminespib (first compound 0.05 µM), 0.258; with XMD13-2 + Luminespib (first compound 0.1581 µM), 0.221. Also, the relative viability with XMD13-2 + Luminespib (first compound 0.5 µM) is 0.226; with XMD13-2 + Luminespib (first compound 1.581 µM), 0.234; with XMD13-2 + Luminespib (first compound 5 µM), 0.236; with Dasatinib + Pemetrexed (first compound 0.005 µM), 0.51; with Dasatinib + Pemetrexed (first compound 0.01581 µM) it was 0.358; with Dasatinib + Pemetrexed (first compound 0.05 µM), 0.285. Besides, the relative viability with Dasatinib + Pemetrexed (first compound 0.1581 µM) and in the experiment with Dasatinib + Pemetrexed (first compound 0.5 µM) was 0.138 each time.
Take NCI-H522: the relative viability with ALW-II-49-7 + Dasatinib (first compound 0.08 µM) is 0.979; with ALW-II-49-7 + Dasatinib (first compound 0.253 µM), 0.81; with ALW-II-49-7 + Dasatinib (first compound 0.8 µM) it was 1.05; with ALW-II-49-7 + Dasatinib (first compound 2.53 µM), 0.772; with ALW-II-49-7 + Dasatinib (first compound 8 µM), 0.987; with XMD13-2 + Palbociclib (first compound 0.05 µM), 0.931. Moreover, the relative viability was determined as 0.873 with XMD13-2 + Palbociclib (first compound 0.1581 µM); 1.22 with XMD13-2 + Palbociclib (first compound 0.5 µM); 0.875 with XMD13-2 + Palbociclib (first compound 1.581 µM); 0.885 with XMD13-2 + Palbociclib (first compound 5 µM); 1.02 with XMD13-2 + Luminespib (first compound 0.05 µM); 1.41 in the experiment with XMD13-2 + Luminespib (first compound 0.1581 µM). The relative viability in the experiment with XMD13-2 + Luminespib (first compound 0.5 µM) came out at 1.18; with XMD13-2 + Luminespib (first compound 1.581 µM), 1.13; with XMD13-2 + Luminespib (first compound 5 µM), 1.06; in the experiment with Dasatinib + Pemetrexed (first compound 0.005 µM) it was 1.04; with Dasatinib + Pemetrexed (first compound 0.01581 µM), 1.03; in the experiment with Dasatinib + Pemetrexed (first compound 0.05 µM), 0.914. Also, the relative viability stood at 0.706 with Dasatinib + Pemetrexed (first compound 0.1581 µM) and 0.681 with Dasatinib + Pemetrexed (first compound 0.5 µM).
For NCI-H647, the relative viability in the experiment with ALW-II-49-7 + Dasatinib (first compound 0.08 µM) was found to be 0.153; with ALW-II-49-7 + Dasatinib (first compound 0.253 µM), 0.131; with ALW-II-49-7 + Dasatinib (first compound 0.8 µM), 0.15; with ALW-II-49-7 + Dasatinib (first compound 2.53 µM) it was 0.161; with ALW-II-49-7 + Dasatinib (first compound 8 µM), 0.193; with XMD13-2 + Palbociclib (first compound 0.05 µM) it was 0.491. In addition, the relative viability was found to be 0.384 with XMD13-2 + Palbociclib (first compound 0.1581 µM); 0.408 with XMD13-2 + Palbociclib (first compound 0.5 µM); 0.5 with XMD13-2 + Palbociclib (first compound 1.581 µM); 0.225 with XMD13-2 + Palbociclib (first compound 5 µM); 0.183 in the experiment with XMD13-2 + Luminespib (first compound 0.05 µM); 0.289 with XMD13-2 + Luminespib (first compound 0.1581 µM). For the same cell line, the relative viability was found to be 0.183 with XMD13-2 + Luminespib (first compound 0.5 µM); 0.229 with XMD13-2 + Luminespib (first compound 1.581 µM); 0.147 with XMD13-2 + Luminespib (first compound 5 µM); 0.156 with Dasatinib + Pemetrexed (first compound 0.005 µM); 0.137 with Dasatinib + Pemetrexed (first compound 0.01581 µM); 0.117 with Dasatinib + Pemetrexed (first compound 0.05 µM). Also, the figures for the relative viability with Dasatinib + Pemetrexed (first compound 0.1581 µM) and with Dasatinib + Pemetrexed (first compound 0.5 µM) were 0.0903 and 0.0883, respectively.
Regarding NCI-H650, the relative viability with ALW-II-49-7 + Dasatinib (first compound 0.08 µM) is 0.42; with ALW-II-49-7 + Dasatinib (first compound 0.253 µM), 0.518; with ALW-II-49-7 + Dasatinib (first compound 0.8 µM), 0.421; in the experiment with ALW-II-49-7 + Dasatinib (first compound 2.53 µM) it was 0.482; with ALW-II-49-7 + Dasatinib (first compound 8 µM) it was 0.341; in the experiment with XMD13-2 + Palbociclib (first compound 0.05 µM), 0.321. For the same cell line, the relative viability with XMD13-2 + Palbociclib (first compound 0.1581 µM) turned out to be 0.335; with XMD13-2 + Palbociclib (first compound 0.5 µM) it was 0.33; with XMD13-2 + Palbociclib (first compound 1.581 µM), 0.305; in the experiment with XMD13-2 + Palbociclib (first compound 5 µM), 0.31; in the experiment with XMD13-2 + Luminespib (first compound 0.05 µM), 0.854; in the experiment with XMD13-2 + Luminespib (first compound 0.1581 µM), 0.757. The relative viability with XMD13-2 + Luminespib (first compound 0.5 µM) came to 0.854; with XMD13-2 + Luminespib (first compound 1.581 µM), 0.822; with XMD13-2 + Luminespib (first compound 5 µM) it was 0.668; in the experiment with Dasatinib + Pemetrexed (first compound 0.005 µM), 0.989; with Dasatinib + Pemetrexed (first compound 0.01581 µM), 0.932; with Dasatinib + Pemetrexed (first compound 0.05 µM) it was 0.818. The figures for the relative viability in the experiment with Dasatinib + Pemetrexed (first compound 0.1581 µM) and with Dasatinib + Pemetrexed (first compound 0.5 µM) were 0.66 and 0.418, respectively.
Regarding NCI-H661, the relative viability is 0.782 with ALW-II-49-7 + Dasatinib (first compound 0.08 µM); 1.06 with ALW-II-49-7 + Dasatinib (first compound 0.253 µM); 0.965 in the experiment with ALW-II-49-7 + Dasatinib (first compound 0.8 µM); 0.832 with ALW-II-49-7 + Dasatinib (first compound 2.53 µM); 0.767 with ALW-II-49-7 + Dasatinib (first compound 8 µM); 0.378 in the experiment with XMD13-2 + Palbociclib (first compound 0.05 µM). Also, the relative viability with XMD13-2 + Palbociclib (first compound 0.1581 µM) was 0.395; with XMD13-2 + Palbociclib (first compound 0.5 µM), 0.392; with XMD13-2 + Palbociclib (first compound 1.581 µM), 0.406; with XMD13-2 + Palbociclib (first compound 5 µM), 0.408; with XMD13-2 + Luminespib (first compound 0.05 µM), 0.904; with XMD13-2 + Luminespib (first compound 0.1581 µM) it was 0.907. Besides, the relative viability with XMD13-2 + Luminespib (first compound 0.5 µM) was determined as 0.904; with XMD13-2 + Luminespib (first compound 1.581 µM) it was 0.953; in the experiment with XMD13-2 + Luminespib (first compound 5 µM) it was 0.725; with Dasatinib + Pemetrexed (first compound 0.005 µM), 0.913; with Dasatinib + Pemetrexed (first compound 0.01581 µM), 0.823; in the experiment with Dasatinib + Pemetrexed (first compound 0.05 µM), 0.889. Besides, the relative viability with Dasatinib + Pemetrexed (first compound 0.1581 µM) is 0.763; with Dasatinib + Pemetrexed (first compound 0.5 µM), 0.51.
NCI-H838: the relative viability in the experiment with ALW-II-49-7 + Dasatinib (first compound 0.08 µM) was 0.395; with ALW-II-49-7 + Dasatinib (first compound 0.253 µM), 0.34; with ALW-II-49-7 + Dasatinib (first compound 0.8 µM), 0.294; with ALW-II-49-7 + Dasatinib (first compound 2.53 µM), 0.257; with ALW-II-49-7 + Dasatinib (first compound 8 µM), 0.255; in the experiment with XMD13-2 + Palbociclib (first compound 0.05 µM), 0.238. Besides, the relative viability with XMD13-2 + Palbociclib (first compound 0.1581 µM) came out at 0.214; in the experiment with XMD13-2 + Palbociclib (first compound 0.5 µM), 0.249; in the experiment with XMD13-2 + Palbociclib (first compound 1.581 µM), 0.224; with XMD13-2 + Palbociclib (first compound 5 µM), 0.205; with XMD13-2 + Luminespib (first compound 0.05 µM) it was 0.398; in the experiment with XMD13-2 + Luminespib (first compound 0.1581 µM), 0.308. For the same cell line, the relative viability in the experiment with XMD13-2 + Luminespib (first compound 0.5 µM) stood at 0.407; in the experiment with XMD13-2 + Luminespib (first compound 1.581 µM), 0.235; in the experiment with XMD13-2 + Luminespib (first compound 5 µM), 0.347; with Dasatinib + Pemetrexed (first compound 0.005 µM), 0.26; in the experiment with Dasatinib + Pemetrexed (first compound 0.01581 µM) it was 0.241; in the experiment with Dasatinib + Pemetrexed (first compound 0.05 µM) it was 0.218. Moreover, the figures for the relative viability in the experiment with Dasatinib + Pemetrexed (first compound 0.1581 µM) and with Dasatinib + Pemetrexed (first compound 0.5 µM) were 0.176 and 0.214, respectively.
